Results from patent US6054115A, “Hydroxymethyl phosphine compounds for use as diagnostic and therapeutic pharmaceuticals and method of making same” (priority 1998, dated 2000).

How the values were obtained:
[1] = Oxidative stability of HMPE and HMPB in air and aqueous solution; format: physicochemical; settings: air and aqueous solutions
[2] = In vitro stability of Re complexes to cysteine challenge, 31P NMR; format: physicochemical; settings: for ligand exchange or complex decomposition: 1 M cysteine, 25° C, ~0.01 M complex
Protocol: Appropriate sample sizes of complexes 8, 9, and 10 were dissolved in 10 mL of deionized water to afford solution concentrations of ~0.01 M. To these solutions was added 15 mL of a 1.0 M cysteine solution also in water. The solutions were allowed to stir at room temperature overnight. The reaction progress for potential ligand displacement was monitored by ^31 P NMR spectroscopy at various timepoints over a twenty-four hour study period.
In order to determine the in vitro stability of the rhenium S2 P2 complexes 8, 9, and 10, the solutions of each were allowed to incubate at 25° C. in an aqueous solution of cysteine.

| Molecule | oxidative stability [1] | ligand exchange or complex decomposition [2] | stability profile (kinetic inertness) ([2]; 1.0 M cysteine, 24 hours) |
| --- | --- | --- | --- |
| OCP(CO)CCP(CO)CO [HMPE, (HOH2 C)2 PCH2 CH2 P(CH2 OH)2] | oxidatively stable in air and also in aqueous solutions |  |  |
| [ReO2 (HOH2 C)2 P(CH2)2 S(CH2)3 S(CH2)2 P(CH2 OH)2 ]2 Cl2 [Compound 8] |  | no observable ligand exchange or complex decomposition |  |
| OCP(CO)c1ccccc1P(CO)CO [HMPB, (HOH2 C)2 PC6 H4 P(CH2 OH)2] | oxidatively stable in air and also in aqueous solutions |  |  |
| [ReO2 (HOH2 C)2 P(CH2)2 S(CH2)4 S(CH2)2 P(CH2 OH2 ]2 (ReO4^-)2 [Compound 9] |  | no observable ligand exchange or complex decomposition |  |
| [ReO2 (HOH2 C)2 P(CH2)3 S(CH2)3 S(CH2)3 P(CH2 OH)2 ]Cl [Compound 10] |  | no observable ligand exchange or complex decomposition | unusual kinetic inertness |
